In US20230263903A1, “PYRAZOLOAZEPINE IMMUNOCONJUGATES, AND USES THEREOF” (BOLT BIOTHERAPEUTICS, INC., priority 2020, published 2023):

Tests used:
[1] = target: T1, human TLR8 (Homo sapiens, UniProt Q9NR97); assay: HEK Reporter Assay, HEK293 cells expressing human TLR8; format: cell-based; conditions: for EC50: HEK293 NFKB reporter cells expressing human TLR8, read-out: HEK293 hTLR8 EC50
T1 construct: host or cells: HEK293 NF-kB reporter cells
T1 sequence (Q9NR97 27-1041): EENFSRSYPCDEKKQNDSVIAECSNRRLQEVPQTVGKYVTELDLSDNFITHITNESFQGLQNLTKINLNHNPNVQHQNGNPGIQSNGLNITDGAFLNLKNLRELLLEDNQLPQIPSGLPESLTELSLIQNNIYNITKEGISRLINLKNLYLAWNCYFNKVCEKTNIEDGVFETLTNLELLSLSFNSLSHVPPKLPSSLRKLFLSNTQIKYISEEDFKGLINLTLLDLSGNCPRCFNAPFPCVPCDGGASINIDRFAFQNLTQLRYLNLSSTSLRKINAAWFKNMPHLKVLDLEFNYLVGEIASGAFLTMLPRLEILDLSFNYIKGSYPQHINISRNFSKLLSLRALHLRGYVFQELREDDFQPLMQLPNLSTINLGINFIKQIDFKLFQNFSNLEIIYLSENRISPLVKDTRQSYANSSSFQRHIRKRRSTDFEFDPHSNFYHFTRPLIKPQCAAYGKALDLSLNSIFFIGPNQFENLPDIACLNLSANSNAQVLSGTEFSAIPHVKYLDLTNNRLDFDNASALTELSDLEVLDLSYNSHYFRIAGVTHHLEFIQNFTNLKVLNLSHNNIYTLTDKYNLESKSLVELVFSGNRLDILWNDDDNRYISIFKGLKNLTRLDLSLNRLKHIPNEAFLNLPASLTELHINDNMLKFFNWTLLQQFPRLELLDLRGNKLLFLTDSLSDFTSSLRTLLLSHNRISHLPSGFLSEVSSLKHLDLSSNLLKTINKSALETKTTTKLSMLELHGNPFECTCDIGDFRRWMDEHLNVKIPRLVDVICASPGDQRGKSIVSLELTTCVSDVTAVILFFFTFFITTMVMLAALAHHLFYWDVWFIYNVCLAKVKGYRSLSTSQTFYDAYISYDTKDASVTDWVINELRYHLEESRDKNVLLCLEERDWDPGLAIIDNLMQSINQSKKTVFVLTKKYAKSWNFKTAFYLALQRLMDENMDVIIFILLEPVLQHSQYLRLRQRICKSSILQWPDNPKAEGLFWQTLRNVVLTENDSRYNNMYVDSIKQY
Method: (§1) Activity against HEK293 NFKB reporter cells expressing human TLR7 or human TLR8 was measured according to Example 202.
(§2) Example 202 HEK Reporter Assay
(§3) HEK293 reporter cells expressing human TLR7 or human TLR8 were purchased from Invivogen and vendor protocols were followed for cellular propagation and experimentation. Briefly, cells were grown to 80-85% confluence at 5% CO2 in DMEM supplemented with 10% FBS, Zeocin, and Blasticidin. Cells were then seeded in 96-well flat plates at 4×10^4 cells/well with substrate containing HEK detection medium and immunostimulatory molecules.

[2] = target: T2, human TLR7 (Homo sapiens, UniProt Q9NYK1); assay: HEK Reporter Assay, HEK293 cells expressing human TLR7; format: cell-based; conditions: for EC50: HEK293 NFKB reporter cells expressing human TLR7, read-out: HEK293 hTLR7 EC50; for TLR7 activity relative to known TLR7 adjuvant C-1: HEK human TLR7 activity at 24 hours, FIG. 1
T2 construct: host or cells: HEK293 NF-kB reporter cells
T2 sequence (Q9NYK1 27-1049): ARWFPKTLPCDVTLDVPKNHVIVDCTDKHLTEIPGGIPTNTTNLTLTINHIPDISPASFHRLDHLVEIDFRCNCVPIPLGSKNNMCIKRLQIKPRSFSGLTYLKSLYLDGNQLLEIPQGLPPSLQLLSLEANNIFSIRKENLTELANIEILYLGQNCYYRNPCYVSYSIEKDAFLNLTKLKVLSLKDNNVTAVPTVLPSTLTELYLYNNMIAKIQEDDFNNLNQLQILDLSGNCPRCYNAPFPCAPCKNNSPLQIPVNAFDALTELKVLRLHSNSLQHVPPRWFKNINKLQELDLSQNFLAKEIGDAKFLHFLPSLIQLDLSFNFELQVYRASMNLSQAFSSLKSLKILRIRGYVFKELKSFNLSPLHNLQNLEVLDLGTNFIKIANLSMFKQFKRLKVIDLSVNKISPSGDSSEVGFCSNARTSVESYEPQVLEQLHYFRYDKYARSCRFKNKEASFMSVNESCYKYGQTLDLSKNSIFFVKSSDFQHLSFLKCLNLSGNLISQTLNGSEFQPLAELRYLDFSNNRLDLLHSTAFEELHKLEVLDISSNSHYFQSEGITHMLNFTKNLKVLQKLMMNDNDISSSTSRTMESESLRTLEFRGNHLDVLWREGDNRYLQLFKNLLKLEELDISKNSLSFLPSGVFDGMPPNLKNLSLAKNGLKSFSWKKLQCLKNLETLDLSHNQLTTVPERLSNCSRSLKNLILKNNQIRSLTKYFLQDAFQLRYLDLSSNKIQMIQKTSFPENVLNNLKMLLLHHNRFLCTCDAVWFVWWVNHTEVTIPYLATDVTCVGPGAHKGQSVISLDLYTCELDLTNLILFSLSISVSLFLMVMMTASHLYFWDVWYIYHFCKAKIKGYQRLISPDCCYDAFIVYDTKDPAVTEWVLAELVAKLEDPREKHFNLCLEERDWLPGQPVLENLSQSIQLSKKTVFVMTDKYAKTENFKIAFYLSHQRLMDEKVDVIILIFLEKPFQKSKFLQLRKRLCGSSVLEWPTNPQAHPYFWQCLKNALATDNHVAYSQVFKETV
Method: as §1, §2, §3

[3] = Hydrophilicity comparison with comparator C-2; format: physicochemical

Compound	EC50 [1] [µM]	EC50 [2] [µM]	TLR7 activity relative to known TLR7 adjuvant C-1 [2]	TLR8 potency relative to known TLR8 adjuvant C-2 ([1]; HEK human TLR8 activity at 24 hours, FIG. 2)	hydrophilicity relative to C-2 [3]
CCCN(CCC)C(=O)C1=Cc2nn(CCCCCN)cc2N=C(N)C1 [PAZ-3]	> 9	> 9			
CCCN(CCCNC(=O)OC1CCC1)C(=O)C1=Cc2c(cnn2CCCCCN)N=C(N)C1 [PAZ-15, cyclobutyl (3-(5-amino-1-(5-aminopentyl)-N-propyl-1,6-dihydropyrazolo[4,3-b]azepine-7-carboxamido)propyl)carbamate]	> 9	> 9			
CCCN(CCC)C(=O)C1=Cc2nn(CCCCCNC(=O)OC(C)(C)C)cc2N=C(N)C1 [PAZ-5]	> 9	> 9			
CCCN(CCCNC(=O)CC(C)(C)C)C(=O)C1=Cc2c(cnn2CCCCCN)N=C(N)C1 [PAZ-7, 5-amino-1-(5-aminopentyl)-N-[3-(3,3-dimethylbutanoylamino)propyl]-N-propyl-6H-pyrazolo[4,3-b]azepine-7-carboxamide]	> 9	> 9			
CCCN(CCCNC(=O)CC(C)(C)C)C(=O)C1=Cc2nn(CCCCCN)cc2N=C(N)C1 [PAZ-9, 5-amino-2-(5-aminopentyl)-N-[3-(3,3-dimethylbutanoylamino)propyl]-N-propyl-6H-pyrazolo[4,3-b]azepine-7-carboxamide]	> 9	> 9			
CCCN(CCCNC(=O)CC(C)(C)C)C(=O)C1=Cc2c(cnn2CCCCCNC(=O)OC(C)(C)C)N=C(N)C1 [PAZ-8, tert-butyl N-[5-[5-amino-7-[3-(3,3-dimethylbutanoylamino)propyl-propyl-carbamoyl]-6H-pyrazolo[4,3-b]azepin-1-yl]pentyl]carbamate]	> 9	2.75			
CCCN(CCC)C(=O)C1=Cc2c(cnn2Cc2ccc(CN)cc2)N=C(N)C1 [PAZ-14, 5-amino-1-[[4-(aminomethyl)phenyl]methyl]-N,N-dipropyl-6H-pyrazolo[4,3-b]azepine-7-carboxamide]	> 9	5.59			

Stronger by EC50 [1], values ahead:

EC50 [1] [µM]	EC50 [2] [µM]	TLR7 activity relative to known TLR7 adjuvant C-1 [2]	TLR8 potency relative to known TLR8 adjuvant C-2 ([1]; HEK human TLR8 activity at 24 hours, FIG. 2)	hydrophilicity relative to C-2 [3]	Compound
3.1	2.92				CCCN(CCC)C(=O)C1=Cc2c(cnn2CCCCCNC(=O)OC(C)(C)C)N=C(N)C1 [PAZ-4, tert-butyl N-[5-[5-amino-7-(dipropylcarbamoyl)-6H-pyrazolo[4,3-b]azepin-1-yl]pentyl]carbamate]
0.29	3.21				CCCN(OCC)C(=O)C1=Cc2c(cnn2CCCCCN)N=C(N)C1 [PAZ-12, 5-amino-1-(5-aminopentyl)-N-ethoxy-N-propyl-6H-pyrazolo[4,3-b]azepine-7-carboxamide]
3.84	0.881				CCCN(CCC)C(=O)C1=Cc2c(cnn2Cc2ccc(CNC(=O)OC(C)(C)C)cc2)N=C(N)C1 [PAZ-13, tert-butyl N-[[4-[[5-amino-7-(dipropylcarbamoyl)-6H-pyrazolo[4,3-b]azepin-1-yl]methyl]phenyl]methyl]carbamate]
1.59	> 9				CCCN(CCC)C(=O)C1=Cc2ccc(-c3cccc(S(=O)(=O)N4CC(CO)C4)c3)cc2N=C(N)C1 [C-2, reference compound]
2.96	> 9	comparable TLR7 activity			CCCN(CCC)C(=O)C1=Cc2c(cnn2CCCCCN)N=C(N)C1 [PAZ-2, 5-amino-1-(5-aminopentyl)-N,N-dipropyl-6H-pyrazolo[4,3-b]azepine-7-carboxamide]
3.23	> 9				CCCN(CCCNC(=O)CC(C)(C)C)C(=O)C1=Cc2nn(CCCCCNC(=O)OC(C)(C)C)cc2N=C(N)C1 [PAZ-10, tert-butyl N-[5-[5-amino-7-[3-(3,3-dimethylbutanoylamino)propyl-propyl-carbamoyl]-6H-pyrazolo[4,3-b]azepin-2-yl]pentyl]carbamate]
1.49	0.795	comparable TLR7 activity	better TLR8 potency	improved hydrophilicity	CCCN(OCC)C(=O)C1=Cc2c(cnn2CCCCCNC(=O)OC(C)(C)C)N=C(N)C1 [PAZ-11, tert-butyl N-[5-[5-amino-7-[ethoxy(propyl)carbamoyl]-6H-pyrazolo[4,3-b]azepin-1-yl]pentyl]carbamate]
4.05	> 9				CCCN(CCC)C(=O)C1=Cc2nn(C)cc2N=C(N)C1 [PAZ-6, 5-amino-2-methyl-N,N-dipropyl-6H-pyrazolo[4,3-b]azepine-7-carboxamide]
4.15	> 9				CCCN(CCC)C(=O)C1=Cc2c(cnn2C)N=C(N)C1 [PAZ-1, 5-amino-1-methyl-N,N-dipropyl-1,6-dihydropyrazolo[4,3-b]azepine-7-carboxamide]
